Target: CK2α (Homo sapiens, UniProt P68400)
Assay: In vitro kinase assay, [γ-32P]ATP phosphorylation of purified CSQ2 by pure CK2α

Sequence of CK2α (P68400 whole entry): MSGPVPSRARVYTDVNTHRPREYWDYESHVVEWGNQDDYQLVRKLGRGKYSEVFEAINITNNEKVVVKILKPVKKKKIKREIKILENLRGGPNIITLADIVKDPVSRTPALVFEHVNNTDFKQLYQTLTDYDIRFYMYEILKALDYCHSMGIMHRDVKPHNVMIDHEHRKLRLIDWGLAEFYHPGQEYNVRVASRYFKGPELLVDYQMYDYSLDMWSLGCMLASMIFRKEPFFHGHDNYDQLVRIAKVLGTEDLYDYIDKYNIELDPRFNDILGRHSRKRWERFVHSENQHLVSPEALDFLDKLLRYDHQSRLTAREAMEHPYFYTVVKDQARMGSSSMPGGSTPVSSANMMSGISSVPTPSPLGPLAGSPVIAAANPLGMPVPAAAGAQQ

IC50: ~10 µM
Structure (SMILES): O=C(O)/C=C/c1cc(Br)c(Br)c(Br)c1Br [TBCA]

Source: PMC4331048 (Molecular and cellular biochemistry, 2011)
